According to patent US4071528A, “Certain thiazolidine and tetrahydrothiazine compounds” (May & Baker Limited, priority 1975, dated 1978):
Like-named read-outs stand apart in the source and are kept apart here.

Legend:
[1] = tested on: Nippostrongylus brasiliensis; test: Activity against roundworms in rats, A.1: treatment 6 days after infection (patent infection), post-mortem worm counts; assay type: in vivo; conditions: 48 h, treated 6 days after infection, read-out: % Reduction of mean worm load
Method: In the Tables of results "s.c." means subcutaneous and the doses are expressed in mg/kg animal body weight. […] A.1. Rats were infected with 100 Nippostrongylus brasiliensis larvae each, by the subcutaneous route. After 6 days, when the infection was patent, the rats were randomised and allotted to groups of 5 animals each, ready for treatment. One group was used for each dose level of the test compound, which was administered by the oral or subcutaneous route, and in each experiment, one group of 10 animals was left untreated as a control. All the rats were killed for post-mortem worm counts 48 hours after treatment. The activities, expressed in terms of the percentage reduction in mean worm load of the treated groups compared with the untreated group, are shown in Table I.

[2] = tested on: Nippostrongylus brasiliensis; test: Activity against roundworms in rats, A.2: treatment 24 hours after infection, post-mortem worm counts; assay type: in vivo; conditions: 144 h, treated 24 hours after infection, read-out: % Reduction of mean worm load
Method: In the Tables of results "s.c." means subcutaneous and the doses are expressed in mg/kg animal body weight. […] A.2. Rats were infected with 100 Nippostrongylus brasiliensis larvae each, by the subcutaneous route. After 24 hours the rats were randomised and allotted to groups of 5 animals each, ready for treatment. Doses of the test compound were then administered to each group by the oral or subcutaneous route, one group of 10 animals being left untreated as a control. All the rats were killed for post-mortem worm counts 6 days after dosing. The activities, expressed in terms of the percentage reduction in mean worm load of the treated groups compared with the untreated control group, are given below in Table II.

[3] = Oral acute toxicity (LD50) in mice; conditions: mouse, in vivo, observed during next 6 days
Source text: Mice were each treated orally with one of the compounds of formula I, and they were observed during the next 6 days. The LD50 figures obtained (doses lethal to 50% of mice tested) are shown in Table VII, expressed in mg/kg animal body weight.

[4] = tested on: Cooperia oncophora and Ostertagia ostertagi; test: C.1 Activity against Cooperia oncophora and Ostertagia ostertagi in their adult stages in calves, faecal egg counts; assay type: in vivo; conditions: s.c. (methanesulphonate salt)
Method: In the Tables of results "s.c." means subcutaneous and the doses are expressed in mg/kg animal body weight. […] C.1. Activity against Cooperia oncophora and Ostertagia ostertagi in their adult stages in calves. Worm-free, 6-7 week old calves were each infected with 15,000 C. oncophora and 15,000 O. ostertagi larvae. Approximately 3 weeks later, doses of the test compound were administered to each group of 2 animals by the subcutaneous route, one group of two animals being left untreated as a control. Individual faecal egg counts were determined 1 day before treatment and 5-7 days after treatment.

Fasciola hepatica = test: D. Activity against mature and immature liver flukes in sheep; assay type: in vivo; conditions: oral 25 mg/kg in gelatin capsules; for Mean % Reduction, Immature flukes: immature flukes in rest of liver; for Mean % Reduction, Mature flukes: mature flukes in bile ducts
Method: D. Activity against mature and immature liver flukes in sheep On the first day of the experiment a group of sheep were each infected with 300 metacercariae of liver fluke Fasciola hepatica and on the 56th day they were each infected with a further 300 metacercariae of F. hepatica. On day 70 of the experiment, doses of the test compounds of 25 mg/kg animal body weight were administered orally in gelatin capsules to groups of two animals per compound. One group of two animals was left untreated as controls. On day 98 of the experiment, all the sheep were killed. The number of mature flukes present in the bile ducts and the numbers of immature flukes present in the rest of the liver were counted. The activities, expressed in terms of the percentage reduction in mean fluke burdens compared with the untreated controls, are shown below in Table VI.

Mycosphaerella pinodes = test: Minimum effective concentration totally inhibiting fungal growth, Mycosphaerella pinodes, potato dextrose agar tubes; assay type: cell-based; conditions: Didymella pinodes, 48 h; total inhibition of fungal growth; tested at 50, 10 or 2 ppm; 25° C, 2 days
Method: Test tubes containing 4.0 ml of molten potato dextrose agar at about 50° C were inoculated with 0.5 ml of suspension of test compound and 0.5 ml of fungal suspension delivered from a sterile syringe to give a final concentration of each compound of 50, 10 or 2 ppm. Two replicate tubes were inoculated with each fungal species. After the addition of test compounds and fungal inoculum to the molten medium the tubes were sloped and the agar was allowed to set. The tubes were incubated at 25° C for either 2 days (Mycosphaerella pinodes) or 3 days (Helminthosporium avenae). […] The suspensions of test compounds were prepared by grinding 0.025 g of test compound with sterile distilled water containing 0.1 ml of 0.1% Texofor FX170 wetting agent, followed by dilution to the concentration desired. The inoculum of Mycosphaerella pinodes was prepared as follows: A one to two week old culture on Coon's agar on plates was scraped off with a glass rod and sterile distilled water and filtered through muslin. The filtrate, containing the spores, was used for inoculation.

[5] = sc, s.c. (methanesulphonate salt, aqueous)

Q: For CCCCCSc1ccc(N2C(=O)CSC2=NC(=O)OC)c(NC(=O)CN(C)C)c1 [J, 3-[2-(2-dimethylaminoacetamido)-4-n-pentylthiophenyl]-2-methoxycarbonyliminothiazolidin-4-one], which inhibition in vivo at 100 mg/kg ([1]; oral) is on record?
A: Its inhibition in vivo at 100 mg/kg is 59%.

Q: What about the inhibition in vivo at 50 mg/kg ([2]; oral) of the same molecule?
A: The inhibition in vivo at 50 mg/kg was 99%.

Q: And the inhibition in vivo at 100 mg/kg ([2]; oral)?
A: Its inhibition in vivo at 100 mg/kg is 99%.

Q: What about the inhibition in vivo at 50 mg/kg [2, 5] of the same molecule?
A: The inhibition in vivo at 50 mg/kg was 99%.

Q: What about the inhibition in vivo at 100 mg/kg [2, 5] of the same molecule?
A: The inhibition in vivo at 100 mg/kg was 99%.

Q: And the LD50 at 144 h [3]?
A: Its LD50 at 144 h is greater than 1000 mg/kg.

Q: Which inhibition in vivo at 100 mg/kg ([1]; oral) does the source give for C=CCSc1ccc(N2C(=O)CSC2=NC(=O)OC)c(NC(=O)CN(C)C)c1 [B, 3-[4-allylthio-2-(2-dimethylaminoacetamido)phenyl]-2-methoxycarbonyliminothiazolidin-4-one] here?
A: The inhibition in vivo at 100 mg/kg was 97%.

Q: What about the inhibition in vivo at 100 mg/kg [1, 5] of the same molecule?
A: The inhibition in vivo at 100 mg/kg was 90%.

Q: And the inhibition in vivo at 50 mg/kg ([2]; oral)?
A: Its inhibition in vivo at 50 mg/kg is 98%.

Q: What about the inhibition in vivo at 50 mg/kg [2, 5] of the same molecule?
A: Its inhibition in vivo at 50 mg/kg is 97%.

Q: And the “% Reduction of mean egg count” value ([4]; 15 mg/kg)?
A: The value was 44%.

Q: And the LD50 at 144 h [3]?
A: The LD50 at 144 h was greater than 1000 mg/kg.

Q: What does the source list for CCN(CC)CC(=O)Nc1cc(Sc2ccccc2)ccc1N1C(=O)CSC1=NC(=O)OC [Compound D, 3-[2-(2-diethylaminoacetamido)-4-phenylthiophenyl]-2-methoxycarbonyliminothiazolidin-4-one]?
A: inhibition in vivo at 100 mg/kg ([1]; oral): 99%; inhibition in vivo at 100 mg/kg [1, 5]: 88%; inhibition in vivo at 12.5 mg/kg ([2]; oral): 96%; inhibition in vivo at 50 mg/kg ([2]; oral): 98%; inhibition in vivo at 25 mg/kg [2, 5]: 96%; inhibition in vivo at 50 mg/kg [2, 5]: 100%; % Reduction of mean egg count ([4]; 15 mg/kg): 98%; Mean % Reduction, Immature flukes (Fasciola hepatica): 75%; Mean % Reduction, Mature flukes (Fasciola hepatica): less than 50%; LD50 at 144 h [3]: > 1000 mg/kg

Q: For CCCCSc1ccc(N2C(=O)CSC2=NC(=O)OC)c(NC(=O)CN(C)C)c1 [G, 3-[4-n-butylthio-2-(2-dimethylaminoacetamido)phenyl]-2-methoxycarbonyliminothiazolidin-4-one], which inhibition in vivo at 100 mg/kg ([1]; oral) is on record?
A: Its inhibition in vivo at 100 mg/kg is 96%.

Q: What about the inhibition in vivo at 100 mg/kg [1, 5] of the same molecule?
A: Its inhibition in vivo at 100 mg/kg is 84%.

Q: What about the inhibition in vivo at 12.5 mg/kg ([2]; oral) of the same molecule?
A: Its inhibition in vivo at 12.5 mg/kg is 95%.

Q: What about the inhibition in vivo at 50 mg/kg ([2]; oral) of the same molecule?
A: The inhibition in vivo at 50 mg/kg was 98%.

Q: What about the inhibition in vivo at 12.5 mg/kg [2, 5] of the same molecule?
A: Its inhibition in vivo at 12.5 mg/kg is 96%.

Q: And the inhibition in vivo at 50 mg/kg [2, 5]?
A: Its inhibition in vivo at 50 mg/kg is 100%.

Q: What about the LD50 at 144 h [3] of the same molecule?
A: The LD50 at 144 h was greater than 1000 mg/kg.

Q: What does the source list for COC(=O)N=C1SCC(=O)N1c1ccc(Sc2ccccc2)cc1NC(=O)CCN(C)C [L, 3-[2-(3-dimethylaminopropionamido)-4-phenylthiophenyl]-2-methoxycarbonyliminothiazolidin-4-one]?
A: inhibition in vivo at 100 mg/kg ([1]; oral): 90%; inhibition in vivo at 50 mg/kg ([2]; oral): 81%; inhibition in vivo at 50 mg/kg [2, 5]: 90%; % Reduction of mean egg count ([4]; 15 mg/kg): 84%; LD50 at 144 h [3]: > 1000 mg/kg

Q: For COC(=O)N=C1SCC(=O)N1c1ccc(SC2CCCC2)cc1NC(=O)CN(C)C [I, 3-[4-cyclopentylthio-2-(2-dimethylaminoacetamido)phenyl]-2-methoxycarbonyliminothiazolidin-4-one], which inhibition in vivo at 25 mg/kg ([2]; oral) is on record?
A: The inhibition in vivo at 25 mg/kg was 97%.

Q: What about the inhibition in vivo at 100 mg/kg ([2]; oral) of the same molecule?
A: Its inhibition in vivo at 100 mg/kg is 96%.

Q: What about the inhibition in vivo at 25 mg/kg [2, 5] of the same molecule?
A: Its inhibition in vivo at 25 mg/kg is 87%.

Q: What about the inhibition in vivo at 100 mg/kg [2, 5] of the same molecule?
A: Its inhibition in vivo at 100 mg/kg is 99%.

Q: And the LD50 at 144 h [3]?
A: The LD50 at 144 h was greater than 1000 mg/kg.

Q: With COC(=O)N=C1SCC(=O)N1c1ccc(SCC2CCCCC2)cc1NC(=O)CN(C)C [F, 3-[4-cyclohexylmethylthio-2-(2-dimethylaminoacetamido)phenyl]-2-methoxycarbonyliminothiazolidin-4-one] as the molecule, how does the inhibition in vivo at 100 mg/kg ([2]; oral) read?
A: The inhibition in vivo at 100 mg/kg was 59%.

Q: And the inhibition in vivo at 100 mg/kg [2, 5]?
A: Its inhibition in vivo at 100 mg/kg is 46%.

Q: And the “% Reduction of mean egg count” value ([4]; 25 mg/kg)?
A: The value was 50%.

Q: Which results are given for CCSc1ccc(N2C(=O)CSC2=NC(=O)OC)c(NC(=O)CN(C)C)c1 [C, 3-[4-ethylthio-2-(2-dimethylaminoacetamido)phenyl]-2-methoxycarbonyliminothiazolidin-4-one]?
A: inhibition in vivo at 100 mg/kg ([1]; oral): 74%; inhibition in vivo at 100 mg/kg [1, 5]: 89%; inhibition in vivo at 12.5 mg/kg ([2]; oral): 81%; inhibition in vivo at 50 mg/kg ([2]; oral): 90%; inhibition in vivo at 12.5 mg/kg [2, 5]: 86%; inhibition in vivo at 50 mg/kg [2, 5]: 98%; % Reduction of mean egg count ([4]; 15 mg/kg): 100%; Mean % Reduction, Immature flukes (Fasciola hepatica): 85%; Mean % Reduction, Mature flukes (Fasciola hepatica): 72%; LD50 at 144 h [3]: > 1000 mg/kg

Q: Which results are given for COC(=O)N=C1SCC(=O)N1c1cc(Sc2ccccc2)ccc1NC(=O)CN(C)C [Compound E, 3-[2-(2-dimethylaminoacetamido)-5-phenylthiophenyl]-2-methoxycarbonyliminothiazolidin-4-one]?
A: inhibition in vivo at 100 mg/kg ([1]; oral): 65%; inhibition in vivo at 100 mg/kg [1, 5]: 54%; inhibition in vivo at 50 mg/kg ([2]; oral): 95%; inhibition in vivo at 50 mg/kg [2, 5]: 99%; % Reduction of mean egg count ([4]; 15 mg/kg): 100%; LD50 at 144 h [3]: > 1000 mg/kg; MIC (Mycosphaerella pinodes): < 2 µg/mL

Q: For CCCSc1ccc(N2C(=O)CSC2=NC(=O)OC)c(NC(=O)CN(C)C)c1 [K, 3-[2-(2-dimethylaminoacetamido)-4-n-propylthiophenyl]-2-methoxycarbonyliminothiazolidin-4-one], which inhibition in vivo at 50 mg/kg ([1]; oral) is on record?
A: The inhibition in vivo at 50 mg/kg was 99%.

Q: What about the inhibition in vivo at 50 mg/kg [1, 5] of the same molecule?
A: The inhibition in vivo at 50 mg/kg was 96%.

Q: What about the inhibition in vivo at 3.125 mg/kg ([2]; oral) of the same molecule?
A: The inhibition in vivo at 3.125 mg/kg was 92%.

Q: What about the inhibition in vivo at 50 mg/kg ([2]; oral) of the same molecule?
A: Its inhibition in vivo at 50 mg/kg is 97%.

Q: And the inhibition in vivo at 3.125 mg/kg [2, 5]?
A: Its inhibition in vivo at 3.125 mg/kg is 96%.

Q: And the inhibition in vivo at 50 mg/kg [2, 5]?
A: The inhibition in vivo at 50 mg/kg was 98%.

Q: And the “% Reduction of mean egg count” value ([4]; 15 mg/kg)?
A: The value was 85%.

Q: And the LD50 at 144 h [3]?
A: Its LD50 at 144 h is greater than 1000 mg/kg.
